ChEMBL document CHEMBL1140271, “Synthesis and antibacterial activity of 5-methoxy- and 5-hydroxy-6-fluoro-1,8-naphthyridone-3-carboxylic acid derivatives” (Bioorg Med Chem Lett, 2005)
In brackets after ≈: the same amount, converted by molar mass.

Legend:
Streptococcus pneumoniae [1] = experiment: Inhibitory concentration against Streptococcus pneumoniae translation; assay type: functional, organism-based
Haemophilus influenzae = experiment: Minimum inhibitory concentration against Haemophilus influenzae GYR 1435 gram-negative strain; assay type: functional
Streptococcus pneumoniae [2] = experiment: Minimum inhibitory concentration against Streptococcus pneumoniae 7257 Quinolone-resistant strain; assay type: functional

Row | SMILES | IC50 (Streptococcus pneumoniae [1]) [µM] | MIC (Haemophilus influenzae) [µg/mL] | MIC (Streptococcus pneumoniae [2]) [µg/mL]
1 | NC1CCN(c2nc3ncc(C(=O)O)c(O)c3cc2F)C1 (centres undefined) | 7 | 4 (≈ 13.7 µM) | 32 (≈ 109 µM)
2 | O=C(O)c1cnc2nc(N3CCCC3)c(F)c(O)c2c1O | 51 | 4 (≈ 13.6 µM) | 4 (≈ 13.6 µM)
3 | COc1c(F)c(N2CCCC2)nc2ncc(C(=O)O)c(O)c12 | 32 | 64 (≈ 208 µM) | 32 (≈ 104 µM)
4 | COc1c(F)c(N2CCC(N)C2)nc2ncc(C(=O)O)c(O)c12 (centres undefined) | 4 | 64 (≈ 199 µM) | 64 (≈ 199 µM)
5 | O=C(O)c1cnc2nc(N3CCC3)c(F)c(O)c2c1O | 200 | 64 (≈ 229 µM) | 64 (≈ 229 µM)
6 | COc1c(F)c(N2CCC2)nc2ncc(C(=O)O)c(O)c12 | 14 | 32 (≈ 109 µM) | 8 (≈ 27.3 µM)
7 | O=C(O)c1cnc2nc(N3CCC3)c(F)cc2c1O | 5 | 1 (≈ 3.8 µM) | 4 (≈ 15.2 µM)
8 | O=C(O)c1cnc2nc(N3CCCC3)c(F)cc2c1O | 10 | 1 (≈ 3.61 µM) | 4 (≈ 14.4 µM)
9 | NC1CCN(c2nc3ncc(C(=O)O)c(O)c3c(O)c2F)C1 (centres undefined) | 17 | 32 (≈ 104 µM) | 64 (≈ 208 µM)
10 | C[C@H]1COc2c(N3CCN(C)CC3)c(F)cc3c(=O)c(C(=O)O)cn1c23.C[C@H]1COc2c(N3CCN(C)CC3)c(F)cc3c(=O)c(C(=O)O)cn1c23.O [LEVOFLOXACIN] | > 100 | 0.015 | –
